Test results: PubChem BioAssay (NCI)
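All cell lines were grown in 96-well plates and treated with compound for 48 hours. GI50 is the concentration that inhibits growth by half. Definition used: TGI = concentration required for complete inhibition of growth.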

What was measured:
Assay in all cases: NCI-60 cell line screen, 48 h
CAKI-1 renal = test system: CAKI-1 renal
MDA-MB-231 breast = test system: MDA-MB-231 breast
SF-268 CNS = test system: SF-268 CNS
SK-MEL-2 melanoma = test system: SK-MEL-2 melanoma
OVCAR-3 ovarian = test system: OVCAR-3 ovarian
HOP-62 NSCLC = test system: HOP-62 NSCLC
HCT-15 colon = test system: HCT-15 colon
MOLT-4 leukemia = test system: MOLT-4 leukemia
BT-549 breast = test system: BT-549 breast
MCF7 breast = test system: MCF7 breast

Row | SMILES | GI50 (CAKI-1 renal) | TGI (CAKI-1 renal) | GI50 (MDA-MB-231 breast) | TGI (MDA-MB-231 breast) | GI50 (SF-268 CNS) | TGI (SF-268 CNS) | GI50 (SK-MEL-2 melanoma) | TGI (SK-MEL-2 melanoma) | GI50 (OVCAR-3 ovarian) | TGI (OVCAR-3 ovarian) | GI50 (HOP-62 NSCLC) | TGI (HOP-62 NSCLC) | GI50 (HCT-15 colon) | TGI (HCT-15 colon) | GI50 (MOLT-4 leukemia) | TGI (MOLT-4 leukemia) | GI50 (BT-549 breast) | TGI (BT-549 breast) | GI50 (MCF7 breast) | TGI (MCF7 breast)
1 | CCN(CC)CCOc1ccc(/C(=C(\C)Cc2ccc(OC)cc2)c2ccc(OC(=O)NCc3ccccc3)cc2)cc1 | 2.27 µM | 6.53 µM | 1.86 µM | 3.47 µM | 2.87 µM | 10.7 µM | 2.16 µM | 4.9 µM | 1.85 µM | 3.47 µM | 2.09 µM | 4.87 µM | 1.53 µM | 3.23 µM | 2.11 µM | 5.73 µM | 1.7 µM | 3.36 µM | 0.269 µM | 2.62 µM
2 | COc1ccc(/C(C)=C(\c2ccc(Cl)cc2)c2ccc(OCCN3CCCC3)cc2)cc1F | 3.43 µM | 6.69 µM | 3.56 µM | 6.97 µM | 4.26 µM | 8.76 µM | 4.27 µM | 8.4 µM | 3.93 µM | 8.38 µM | 3.92 µM | 8.22 µM | 0.848 µM | 3.38 µM | 3.48 µM | 8.28 µM | 3.24 µM | 6.74 µM | 2.41 µM | 6.15 µM
3 | CN1CCC[C@@H]1CCO[C@](C)(c1ccccc1)c1ccc(Cl)cc1 | 7.12 µM | 21.5 µM | 2.79 µM | 13.5 µM | 9 µM | 21.5 µM | 5 µM | 16.2 µM | 7.96 µM | 20.8 µM | 10.1 µM | 23.1 µM | 4.4 µM | 16 µM | 4.12 µM | 18.1 µM | 9.64 µM | 22.4 µM | 2.98 µM | 11.7 µM
4 | O=C(O)C1NCCc2c1[nH]c1ccccc21 (stereo unspecified) | > 100 µM | > 100 µM |  | > 10 µM | > 100 µM | > 100 µM |  | > 100 µM | > 100 µM | > 100 µM |  | > 10 µM | > 100 µM | > 100 µM | > 100 µM | > 100 µM |  | > 10 µM |  | > 10 µM
5 | CCOC(=O)c1c(-c2ccccc2)[n+](=O)c2ccc(Cl)cc2n1[O-] | 3.82 µM | 13.2 µM | 3.58 µM | 13.8 µM | 4.28 µM | 32.2 µM | 40 µM | > 100 µM | 3.88 µM | 15.8 µM | 8.64 µM | 20.8 µM | 3.89 µM | 13.6 µM | 4.93 µM | 45.6 µM | 3.87 µM | 15.7 µM | 5.37 µM | 40.6 µM
6 | COc1ccc(-c2nn(-c3cccc(NC(=O)Nc4ccc(Cl)c(C(F)(F)F)c4)c3)cc2-c2ccncc2)cc1Cl | 2.18 µM | > 100 µM | 2.29 µM | 7.35 µM | 4.21 µM | 35.9 µM | 2.77 µM | 5.71 µM |  |  | 3.37 µM | 17.3 µM | 2.37 µM | 19.2 µM | 2.08 µM | 6.74 µM | 2.08 µM | 4.83 µM | 2.19 µM | 13.7 µM
7 | O=C(Nc1nccs1)c1cc2c(cc1Cl)Sc1nccn1S2(=O)=O | 8.5 µM | 36.9 µM | 19.5 µM | 36.2 µM | 19.2 µM | 46.9 µM | 17.4 µM | 33.1 µM | 15 µM | 28.3 µM | 14.8 µM | 30.2 µM | 12.2 µM | 33.9 µM | 19.1 µM | 42.1 µM | 18.2 µM | 35.4 µM | 6.72 µM | 19.9 µM
8 | COc1ccc2c(c1)CCc1c(-c3noc4c3CCc3cc(OC)ccc3-4)noc1-2 |  | > 100 µM |  | > 100 µM |  | > 100 µM |  | > 100 µM |  | > 100 µM |  | > 100 µM |  | > 100 µM |  | > 100 µM |  | > 100 µM |  | > 100 µM
9 | ClCc1ccc(-c2ccc(Cn3cnc4c(Cl)nc(Cl)nc43)cc2)cc1 | 1.84 µM | 4.32 µM | 2.76 µM | 7.14 µM | 2.01 µM | 4.77 µM | 1.88 µM | 3.42 µM | 1.65 µM | 3.05 µM | 1.92 µM | 4 µM | 1.67 µM | 3.35 µM | 1.95 µM | 6.97 µM | 3.71 µM | 15.5 µM | 1.69 µM | 3.51 µM
10 | C=C1C(=O)O[C@H]2[C@H]1CC/C(Cn1cc(Cn3ccc4ccccc43)nn1)=C\CC[C@@]1(C)O[C@@H]21 | 1.15 µM | 2.38 µM | 1.31 µM | 2.84 µM | 1.82 µM | 3.63 µM | 1.73 µM | 3.96 µM | 1.62 µM | 3.01 µM | 6.96 µM | 20.1 µM | 1.3 µM | 2.77 µM | 1.48 µM | 5.11 µM | 1.38 µM | 2.69 µM | 1.3 µM | 3.18 µM
11 | N#CC(=S)Nc1ccc(Cl)c(Cl)c1 |  | 55.1 µM |  | 43.4 µM |  | > 94.5 µM |  | 33.2 µM |  | 54.3 µM |  | 99.5 µM |  | 49.6 µM |  | 43.5 µM |  | > 55.1 µM |  | > 73.4 µM
12 | Cc1cc(C)c(O)c(Cc2cccc(Cc3cc(C)cc(C)c3O)c2O)c1 |  | > 100 µM |  | > 100 µM |  | > 100 µM |  | > 100 µM |  | > 100 µM |  | > 100 µM |  | > 100 µM |  | > 100 µM |  | > 100 µM |  | > 100 µM
13 | COc1ccc(-c2cc(=O)c3c(OC)c(OC)c(OC)c(OC)c3o2)cc1OC |  | > 100 µM |  | > 100 µM |  | > 100 µM |  | > 100 µM |  | > 100 µM |  | > 100 µM |  | > 100 µM |  | 70.3 µM |  | > 100 µM |  | > 100 µM
14 | CCCc1cc2cc(-n3nc(C)c4c3CC(C)(C)CC4=O)cc(NC3CCC(O)CC3)c2c(=O)[nH]1 (stereo unspecified) |  |  | 0.192 µM | 3.76 µM | 1.8 µM | > 100 µM | 0.441 µM | > 100 µM | 0.58 µM | > 100 µM | 0.129 µM | > 100 µM | 0.167 µM | > 100 µM | 0.186 µM | > 100 µM | 0.959 µM | > 100 µM | 0.0516 µM | > 100 µM
